# Laboratory results taken from US10787441B2, “Hepatitis C virus inhibitors” (priority 2016, dated 2020).
# Read-outs that look alike come from different tables or passages of the source.
# How the values were obtained:
# Type in all cases: cell-based, Hepatitis C virus
# [1] = test system: HCV genotype 1a H77 strain subgenomic luciferase replicon; assay: HCV replicon assay, genotype 1a
# Description: (§1) The HCV luciferase replicon assay measures the ability of a test compound to inhibit HCV replication in cell culture after 3 days of treatment in a human hepatoma cell line (Huh-7) bearing an HCV replicon containing a luciferase-neomycin phosphotransferase fusion gene. The inhibition of HCV replication was measured by quantification of luciferase protein expression. Briefly, Huh-7 cells containing either the HCV genotype 1a H77 strain or genotype 1b Con1 strain subgenomic luciferase replicon (H1a-luc or Zluc, respectively) were grown in DMEM containing glucose, L-glutamine and sodium pyruvate, 10% fetal bovine serum (FBS), 100 IU/mL penicillin, 100 μg/mL streptomycin, 2 mM GlutaMAX, non-essential amino acids and 0.25 (H1a-luc) or 0.5 (Zluc) mg/mL G418. GlutaMAX was obtained from Invitrogen, Corp.; all other media reagents were obtained from Mediatech, Inc. For dose-response testing, the cells were seeded in 96-well plates at 1×10^4 (H1a-luc) or 7.5×10^3 (Zluc) cells/well in a volume of 50 μL, and incubated at 37° C./5% CO2. Three hours after plating, 50 μL of ten 5-fold serial dilutions of compound were added, and cell cultures were incubated at 37° C./5% CO2 for 72 hours. In all cases, Huh-7 cells lacking the HCV replicon served as negative control. To assess luciferase expression, the media/compound was removed from the plates and ONE-glo Luciferase assay reagent (Promega) was added to each well. The assay plates were shaken for 3 minutes at room temperature and luciferase activity for each well was measured with a 1 sec read time on the Victor^3V multilabel counter using a 700 nm cut-off filter (Perkin Elmer). EC50 values were calculated from dose response curves from the resulting best-fit equations determined by Microsoft Excel and XLfit 4.1 software.
# [2] = test system: HCV genotype 3a NS5A within the 1b-replicon; assay: HCV replicon assay, genotype 3a (NS5A intergenotypic stable cell line)
# Text: The nucleotide sequences of the NS5A region of genotype 2a (GenBank Accession # AB047639), genotype 3a (GenBank Accession # D17763), and genotype 4a (GenBank Accession # DQ418788) were synthesized by an outside vendor. The NS5A region of each of these genotypes included the first 11 amino acids of the protease recognition sequence of genotype 1b, as well as the last 10 amino acids of genotype 1b. The NS5A gene cassettes were excised with site specific restriction endonucleases and ligated into a ZS11-luciferase genotype 1b backbone (backbone contains the genotype 1b NS3 protease, NS4a, NS4b, and NS5b coding regions) with similarly cut restriction enzyme sites. Thus, the newly constructed plasmid contains a genotype 2a-, 3a- or 4a-specific NS5A gene within the 1b-replicon.
# These new intergenotypic plasmids were used to establish stable cell lines. RNA was generated from the NS5A intergenotypic plasmids and used in conjunction with a lipofectin reagent to transfect a cured Huh7 cell line. Transfected cells were selected for with G418. After selection has occurred the stable cell lines were propagated, tested for luciferase activity, and RT-PCR with genotype specific primers (either 1a, 2a, 3a, or 4a). Stable cell lines containing the intergenotypic replicon were then fully sequenced and analyzed for proper expression of NS3, NS5A and NS5B proteins.
# Drug titration analysis was performed using the luciferase replicon assay described herein.
# as §1
# HCV 2b = assay: HCV replicon assay, genotype 2b
# [3] = test system: HCV genotype 1b Con1 strain subgenomic luciferase replicon; assay: HCV replicon assay, genotype 1b
# Description: as §1
# [4] = test system: HCV 1aY93H mutant replicon; assay: HCV replicon assay, genotype 1a Y93H mutant
# Description: General procedure: The luciferase replicon transient transfection assay measures the ability of a test compound to inhibit the replication of a transiently-transfected HCV luciferase-bearing wild-type or mutant replicon in cured human hepatoma cells (Huh7.5). The inhibition of HCV replication was measured by quantification of luciferase protein expression. This assay has been validated using a panel of genotype 1a and 1b replicons bearing mutations known to be associated with resistance to BMS-790052. Briefly, subconfluent Huh7.5 cells were electroporated with 10 μg of wild-type or mutant luciferase-bearing HCV replicon RNA. The cells were then seeded in 96-well opaque white plates at 3×10^4 cells/well in 150 μL/well and incubated for 4 hrs at 37° C./5% CO2. Ten 1:5 serial dilutions of each test compound were made in media (DMEM containing glucose, L-glutamine and sodium pyruvate, 10% fetal bovine serum, 100 IU/mL penicillin, 100 μg/mL streptomycin, 2 mM GlutaMAX, and 1×MEM non-essential amino acids (Mediatech, Inc. and Invitrogen Corp.)) at concentrations that were 4× higher than the final concentrations to be tested and 50 μL/well was added to the transfected cells. Untreated, mock-transfected cells served as a negative control of luciferase expression. The plates were incubated at 37° C./5% CO2 for 4 days whereupon the media was removed and 50 μL of ONE-glo luciferase substrate (Promega) was added to each well. The plates were agitated on a rotating platform at room temperature for 3 min and read in a Victor^3V microplate reader (Perkin-Elmer) using a 700 nm cut-off filter with a 1 sec read time. EC50 values were calculated from dose response curves from the resulting best-fit equations determined by Microsoft Excel and XLfit 4.1 software.
# [5] = read-out: 1a IC50, HCV genotype 1a
# [6] = read-out: 3a IC50, HCV genotype 3a
# [7] = Hepatitis C virus, read-out: 2b IC50 (nM), HCV genotype 2b
# [8] = read-out: 1aY93H IC50, HCV genotype 1a, Y93H mutant
# [9] = Hepatitis C virus, read-out: 1a IC50 (nM), HCV genotype 1a
# [10] = Hepatitis C virus, read-out: 3a IC50 (nM), HCV genotype 3a
# [11] = read-out: 2b IC50, HCV genotype 2b
# [12] = Hepatitis C virus, read-out: 1aY93H IC50 (nM), HCV genotype 1a, Y93H mutant
SMILES,"IC50 [1, 5]","IC50 [2, 6]",IC50 (HCV 2b; [7]),IC50 ([3]; Hepatitis C virus),"IC50 [4, 8]","IC50 [1, 9]","IC50 [2, 10]",IC50 (HCV 2b; [11]),"IC50 [4, 12]",IC50 [3]
"CCC1c2ccc(-c3cnc([C@@H]4CCCN4C(=O)[C@@H](NC(=O)OC)C4CCOCC4)[nH]3)cc2Oc2ccc3cc(-c4cnc([C@@H]5CCCN5C(=O)[C@@H](NC(=O)OC)C5CCOCC5)[nH]4)ccc3c21 (single isomer, unassigned) [Compound 15]",0.0098 nM,0.218 nM,0.292 nM,0.0036 nM,0.826 nM,–,–,–,–,–
"COC(=O)N[C@H](C(=O)N1CCC[C@H]1c1ncc(-c2ccc3c(c2)Oc2ccc4cc(-c5cnc([C@@H]6CCCN6C(=O)[C@@H](NC(=O)OC)C6CCOCC6)[nH]5)ccc4c2C3C)[nH]1)C1CCOCC1 (single isomer, unassigned) [Compound 11]",–,–,–,0.0044 nM,–,0.0037 nM,0.038 nM,0.016 nM,0.391 nM,–
"CCC1(CC)c2ccc(-c3cnc([C@H]4CCCN4C(=O)[C@@H](NC(=O)OC)C4CCOCC4)[nH]3)cc2Oc2ccc3cc(-c4cnc([C@H]5CCCN5C(=O)[C@H](NC(=O)OC)C5CCOCC5)[nH]4)ccc3c21 [Compound 16, methyl [(1R)-2-[(2R)-2-{5-[12,12-diethyl-9-(2-{(2R)-1-[(2S)-2-[(methoxycarbonyl)amino]-2-(tetrahydro-2H-pyran-4-yl)acetyl]pyrrolidin-2-yl}-1H-imidazol-5-yl)-12H-benzo[a]xanthen-3-yl]-1H-imidazol-2-yl}pyrrolidin-1-yl]-2-oxo-1-(tetrahydro-2H-pyran-4-yl)ethyl]carbamate]",–,–,0.032 nM,0.0044 nM,–,0.0036 nM,0.015 nM,–,0.072 nM,–
"COC(=O)N[C@H](C(=O)N1CCC[C@H]1c1ncc(-c2ccc3c(c2)Oc2ccc4cc(-c5cnc([C@@H]6CCCN6C(=O)[C@@H](NC(=O)OC)C6CCOCC6)[nH]5)ccc4c2C3C)[nH]1)C1CCOCC1 (single isomer, unassigned) [Compound 12]",0.0045 nM,0.055 nM,–,–,0.548 nM,–,–,0.495 nM,–,0.0056 nM
"COC(=O)N[C@H](C(=O)N1C[C@H](F)C[C@H]1c1ncc(-c2ccc3c(ccc4oc5cc(-c6cnc([C@@H]7C[C@@H](F)CN7C(=O)[C@@H](NC(=O)OC)C(C)C)[nH]6)ccc5c(=O)c43)c2)[nH]1)C(C)C [Compound 28, methyl [(1S)-1-({(2S,4R)-4-fluoro-2-[5-(9-{2-[(2S,4R)-4-fluoro-1-{(2S)-2-[(methoxycarbonyl)amino]-3-methylbutanoyl}pyrrolidin-2-yl]-1H-imidazol-5-yl}-12-oxo-12H-benzo[a]xanthen-3-yl)-1H-imidazol-2-yl]pyrrolidin-1-yl}carbonyl)-2-methylpropyl]carbamate]",–,–,89.8 nM,0.00445 nM,–,0.0292 nM,≥ 1 nM,–,1.18 nM,–
"COC(=O)N[C@H](C(=O)N1CCC[C@H]1c1ncc(-c2ccc3c(ccc4oc5ccc(-c6cnc([C@@H]7CCCN7C(=O)[C@@H](NC(=O)OC)C(C)C)[nH]6)cc5c(=O)c43)c2)[nH]1)C(C)C [Compound 25, methyl [(1S)-1-({(2S)-2-[5-(10-{2-[(2S)-1-{(2S)-2-[(methoxycarbonyl)amino]-3-methylbutanoyl}pyrrolidin-2-yl]-1H-imidazol-5-yl}-12-oxo-12H-benzo[a]xanthen-3-yl)-1H-imidazol-2-yl]pyrrolidin-1-yl}carbonyl)-2-methylpropyl]carbamate]",–,–,≥ 100 nM,0.107 nM,–,0.167 nM,≥ 1 nM,–,≥ 100 nM,–
"CCN(CC)[C@@H](C(=O)N1C[C@H](F)C[C@H]1c1ncc(-c2ccc3c(ccc4oc5cc(-c6cnc([C@@H]7C[C@@H](F)CN7C(=O)[C@@H](c7ccccc7)N(CC)CC)[nH]6)ccc5c(=O)c43)c2)[nH]1)c1ccccc1 [Compound 31, 3,9-bis(2-{(2S,4R)-1-[(2R)-2-(diethylamino)-2-phenylacetyl]-4-fluoropyrrolidin-2-yl}-1H-imidazol-5-yl)-12H-benzo[a]xanthen-12-one]",–,–,797 nM,–,–,0.31 nM,0.0262 nM,–,506 nM,–
"CCC1(CC)c2ccc(-c3cnc([C@@H]4CCCN4C(=O)[C@H](NC(=O)OC)C(C)C)[nH]3)cc2Oc2ccc3cc(-c4cnc([C@@H]5CCCN5C(=O)[C@@H](NC(=O)OC)C(C)C)[nH]4)ccc3c21 [Compound 8, methyl [(1R)-1-({(2S)-2-[5-(12,12-diethyl-3-{2-[(2S)-1-{(2S)-2-[(methoxycarbonyl)amino]-3-methylbutanoyl}pyrrolidin-2-yl]-1H-imidazol-5-yl}-12H-benzo[a]xanthen-9-yl)-1H-imidazol-2-yl]pyrrolidin-1-yl}carbonyl)-2-methylpropyl]carbamate]",–,–,3.33 nM,–,–,0.002 nM,0.581 nM,–,4.1 nM,–
"CCC1(CC)c2ccc(-c3cnc([C@@H]4CCCN4C(=O)[C@H](NC(=O)OC)C(C)C)[nH]3)cc2Oc2cc3ccc(-c4cnc([C@@H]5CCCN5C(=O)[C@@H](NC(=O)OC)C(C)C)[nH]4)cc3cc21 [Compound 9, methyl [(1R)-1-({(2S)-2-[5-(12,12-diethyl-9-{2-[(2S)-1-{(2S)-2-[(methoxycarbonyl)amino]-3-methylbutanoyl}pyrrolidin-2-yl]-1H-imidazol-5-yl}-12H-benzo[b]xanthen-3-yl)-1H-imidazol-2-yl]pyrrolidin-1-yl}carbonyl)-2-methylpropyl]carbamate]",–,–,4.53 nM,–,–,0.002 nM,1.11 nM,–,3.28 nM,–
"COC(=O)N[C@H](C(=O)N1CCC[C@H]1c1ncc(-c2ccc3c(ccc4oc5cc(-c6cnc([C@@H]7CCCN7C(=O)[C@@H](NC(=O)OC)C7CCOCC7)[nH]6)ccc5c(=O)c43)c2)[nH]1)C1CCOCC1 [Compound 30, dimethyl [(12-oxo-12H-benzo[a]xanthene-3,9-diyl)bis{1H-imidazole-5,2-diyl(2S)pyrrolidine-2,1-diyl[(1S)-2-oxo-1-(tetrahydro-2H-pyran-4-yl)ethane-2,1-diyl]}]biscarbamate]",–,–,0.481 nM,–,–,0.0416 nM,0.722 nM,–,2.03 nM,–
